Source: patent publication US20130053430A1, “MODULATION OF CETP EXPRESSION” (Isis Pharmaceuticals, Inc., priority 2010, published 2013)
Strand notation (5' to 3'): a small letter for the sugar, then the base; units joined by * are phosphorothioate-linked, units joined directly phosphodiester-linked; [ ] holds rarer units or linkages, { } end groups; capitals alone tell only the bases. e = 2'-O-(2-methoxyethyl) (MOE); [5mC] = 5-methylcytosine; d = 2'-deoxy (DNA)

What was measured:
[1] = test system: human CETP mRNA; assay: Antisense inhibition of human CETP mRNA in primary hepatocytes from huCETP transgenic mice (Example 4); format: cell-based, mouse; conditions: cytofectin, ~24 hours
Protocol: Transgenic mice expressing human CETP, controlled by its natural flanking region, increase expression of this gene in response to hypercholesterolemia (Jiang, X. C. et al., J. Clin. Invest. 1992. 90: 1290-1295). These mice were utilized for the following studies. Antisense oligonucleotides targeted to a CETP nucleic acid and described in Example 1 were tested for their effect on CETP mRNA transcript in vitro. Cultured primary hepatocytes from huCETP transgenic mice, at a density of 17,500 cells per well in a 96-well plate, were transfected using cytofectin reagent with 100 nM or 200 nM antisense oligonucleotide. After approximately 24 hours, RNA was isolated from the cells and CETP mRNA levels were measured by quantitative real-time PCR. CETP mRNA transcript levels were adjusted according to total RNA content, as measured by the house-keeping gene, GAPDH mRNA levels. Results are presented in Table 6 as percent inhibition of CETP, relative to untreated control cells.

[2] = test system: human CETP mRNA; assay: Antisense inhibition of human CETP mRNA in SW872 liposarcoma cells (Example 1); format: cell-based; conditions: 150 nM antisense oligonucleotide, lipofectin, ~24 hours, relative to untreated control cells
Protocol: Antisense oligonucleotides targeted to a CETP nucleic acid were tested for their effect on CETP mRNA transcript in vitro. Cultured SW872 liposarcoma cells at a density of 50,000 cells per well in a 24-well plate were transfected using lipofectin reagent with 150 nM antisense oligonucleotide. After approximately 24 hours, RNA was isolated from the cells and CETP mRNA levels were measured by quantitative real-time PCR. A human primer probe set (forward sequence […], designated herein as SEQ ID NO: 38; reverse sequence GGCTCACGCCTTTGCTGTT, designated herein as SEQ ID NO: 39; probe sequence […], designated herein as SEQ ID NO: 40) was used to quantitate CETP mRNA. CETP mRNA transcript levels were adjusted according to total RNA content, as measured by the house-keeping gene, GAPDH mRNA levels. GAPDH was measured using a primer probe set with the sequence as set forth in SEQ ID NOs: 10, 11, 13. Results are presented as percent inhibition of CETP, relative to untreated control cells.
The antisense oligonucleotides in Table 3 are 5-10-5 gapmers, where the gap segment comprises ten 2′-deoxynucleosides and each wing segment comprises five 2′-MOE nucleosides. Each nucleotide in the 5′ wing segment and each nucleotide in the 3′ wing segment has a 2′-MOE modification. The internucleoside linkages throughout each gapmer are phosphorothioate (P═S) linkages. All cytosine residues throughout each gapmer are 5-methylcytosines. ‘Target start site’ indicates the 5′-most nucleotide to which the antisense oligonucleotide is targeted. ‘Target stop site’ indicates the 3′-most nucleotide to which the antisense oligonucleotide is targeted. All the antisense oligonucleotides listed in Table 3 target human CETP mRNA, designated herein as SEQ ID NO: 1 (GENBANK Accession No. M30185.1).

Row | Substance | Percent inhibition of human CETP mRNA ([1]; 100 nM) | Percent inhibition of human CETP mRNA ([1]; 200 nM) | % inhibition [2]
1 | ISIS 349468: 5-10-5 MOE gapmer TCAATACCCAGCCACCAGGC (eT*e[5mC]*eA*eA*eT*dA*d[5mC]*d[5mC]*d[5mC]*dA*dG*d[5mC]*d[5mC]*dA*d[5mC]*e[5mC]*eA*eG*eG*e[5mC]) | 53% | 50% | 33%
2 | ISIS 349470: 5-10-5 MOE gapmer GAGGTCAATGGCAGAGTCGA (antisense eG*eA*eG*eG*eT*d[5mC]*dA*dA*dT*dG*dG*d[5mC]*dA*dG*dA*eG*eT*e[5mC]*eG*eA) | 64% | 49% | 59%
3 | ISIS 349474: 5-10-5 MOE gapmer CGCTCCCCTTGGAGATGCAG (e[5mC]*eG*e[5mC]*eT*e[5mC]*d[5mC]*d[5mC]*d[5mC]*dT*dT*dG*dG*dA*dG*dA*eT*eG*e[5mC]*eA*eG) | 64% | 48% | 76%
4 | ISIS 349469: 5-10-5 MOE gapmer TCTCGAAGTCAATGGACTGA (eT*e[5mC]*eT*e[5mC]*eG*dA*dA*dG*dT*d[5mC]*dA*dA*dT*dG*dG*eA*e[5mC]*eT*eG*eA) | 40% | 66% | 70%
5 | ISIS 349514: 5-10-5 MOE gapmer ACGCTGGAGGAGACACCAGG (eA*e[5mC]*eG*e[5mC]*eT*dG*dG*dA*dG*dG*dA*dG*dA*d[5mC]*dA*e[5mC]*e[5mC]*eA*eG*eG) | 84% | 92% | 71%
6 | ISIS 349479: 5-10-5 MOE gapmer CTGGCAGCCCTTGTCTGGAC (e[5mC]*eT*eG*eG*e[5mC]*dA*dG*d[5mC]*d[5mC]*d[5mC]*dT*dT*dG*dT*d[5mC]*eT*eG*eG*eA*e[5mC]) | 80% | 66% | 67%
7 | ISIS 349484: 5-10-5 MOE gapmer ACCAGAAGTACAGCATGCGG (eA*e[5mC]*e[5mC]*eA*eG*dA*dA*dG*dT*dA*d[5mC]*dA*dG*d[5mC]*dA*eT*eG*e[5mC]*eG*eG) | 34% | 52% | 38%
8 | ISIS 349476: 5-10-5 MOE gapmer CCTTCAGGACCAGCTTCAGG (e[5mC]*e[5mC]*eT*eT*e[5mC]*dA*dG*dG*dA*d[5mC]*d[5mC]*dA*dG*d[5mC]*dT*eT*e[5mC]*eA*eG*eG) | 49% | 60% | 59%
9 | ISIS 349458: 5-10-5 MOE gapmer GGTAGCTGGCTCGCTGGAAG (eG*eG*eT*eA*eG*d[5mC]*dT*dG*dG*d[5mC]*dT*d[5mC]*dG*d[5mC]*dT*eG*eG*eA*eA*eG) | 65% | 32% | 18%
10 | ISIS 349462: 5-10-5 MOE gapmer ATCTGGATGTTGTGCAACCC (eA*eT*e[5mC]*eT*eG*dG*dA*dT*dG*dT*dT*dG*dT*dG*d[5mC]*eA*eA*e[5mC]*e[5mC]*e[5mC]) | 60% | 76% | 76%
11 | ISIS 349477: 5-10-5 MOE gapmer GATCTCTTTGCAGATCTGTC (eG*eA*eT*e[5mC]*eT*d[5mC]*dT*dT*dT*dG*d[5mC]*dA*dG*dA*dT*e[5mC]*eT*eG*eT*e[5mC]) | 44% | 47% | 41%
12 | ISIS 349509: 5-10-5 MOE gapmer CATCTGCAGCAGCAGGAAGC (e[5mC]*eA*eT*e[5mC]*eT*dG*d[5mC]*dA*dG*d[5mC]*dA*dG*d[5mC]*dA*dG*eG*eA*eA*eG*e[5mC]) | 22% | 83% | 70%
13 | ISIS 349450: 5-10-5 MOE gapmer GCAGTGGTGTGTAAGTGGCC (eG*e[5mC]*eA*eG*eT*dG*dG*dT*dG*dT*dG*dT*dA*dA*dG*eT*eG*eG*e[5mC]*e[5mC]) | 89% | 59% | 21%
14 | ISIS 349473: 5-10-5 MOE gapmer AGCAGCTTATGGAAAGACAG (eA*eG*e[5mC]*eA*eG*d[5mC]*dT*dT*dA*dT*dG*dG*dA*dA*dA*eG*eA*e[5mC]*eA*eG) | 55% | 61% | 72%
15 | ISIS 349504: 5-10-5 MOE gapmer TGACCTCAGGGATGCCCACA (eT*eG*eA*e[5mC]*e[5mC]*dT*d[5mC]*dA*dG*dG*dG*dA*dT*dG*d[5mC]*e[5mC]*e[5mC]*eA*e[5mC]*eA) | 78% | 92% | 45%
16 | ISIS 349467: 5-10-5 MOE gapmer GTGGTGTAGCCATACTTCAG (eG*eT*eG*eG*eT*dG*dT*dA*dG*d[5mC]*d[5mC]*dA*dT*dA*d[5mC]*eT*eT*e[5mC]*eA*eG) | 57% | 51% | 35%
17 | ISIS 349455: 5-10-5 MOE gapmer CGATGCCTGCCTCGTGCGAG (e[5mC]*eG*eA*eT*eG*d[5mC]*d[5mC]*dT*dG*d[5mC]*d[5mC]*dT*d[5mC]*dG*dT*eG*e[5mC]*eG*eA*eG) | 25% | 17% | 35%
18 | ISIS 349460: 5-10-5 MOE gapmer GCATCATGGCCTTCTCGCCC (eG*e[5mC]*eA*eT*e[5mC]*dA*dT*dG*dG*d[5mC]*d[5mC]*dT*dT*d[5mC]*dT*e[5mC]*eG*e[5mC]*e[5mC]*e[5mC]) | 67% | 76% | 80%
19 | ISIS 349492: 5-10-5 MOE gapmer GGCATCTTGAGGCAGTGGAC (antisense eG*eG*e[5mC]*eA*eT*d[5mC]*dT*dT*dG*dA*dG*dG*d[5mC]*dA*dG*eT*eG*eG*eA*e[5mC]) | 59% | 58% | 39%
20 | ISIS 349471: 5-10-5 MOE gapmer GTCAGCTGTGTGTTGATCTG (eG*eT*e[5mC]*eA*eG*d[5mC]*dT*dG*dT*dG*dT*dG*dT*dT*dG*eA*eT*e[5mC]*eT*eG) | 70% | 66% | 32%
21 | ISIS 349447: 5-10-5 MOE gapmer TATGTATGTCCGCCCAGCCC (eT*eA*eT*eG*eT*dA*dT*dG*dT*d[5mC]*d[5mC]*dG*d[5mC]*d[5mC]*d[5mC]*eA*eG*e[5mC]*e[5mC]*e[5mC]) | 57% | 28% | 15%
22 | ISIS 349453: 5-10-5 MOE gapmer GCATTGCCCAGCAGGGCCAG (eG*e[5mC]*eA*eT*eT*dG*d[5mC]*d[5mC]*d[5mC]*dA*dG*d[5mC]*dA*dG*dG*eG*e[5mC]*e[5mC]*eA*eG) | 2% | 26% | 45%
23 | ISIS 349478: 5-10-5 MOE gapmer ATGATGTTAGAGATGACGTT (eA*eT*eG*eA*eT*dG*dT*dT*dA*dG*dA*dG*dA*dT*dG*eA*e[5mC]*eG*eT*eT) | 6% | 33% | 48%
